In article PMC12648285 (JACS Au, 2025):

What was measured:
[1] = target: TRKA (Homo sapiens, UniProt P04629); test: TRKA kinase biochemical assay
[2] = target: TRKB (Homo sapiens, UniProt Q16620); test: TRKB kinase biochemical assay
[3] = target: TRKC (Homo sapiens, UniProt Q16288); test: TRKC kinase biochemical assay
[4] = target: TRKA kinase domain (440-796) (Homo sapiens, UniProt P04629); test: Intact protein mass spectrometry, covalent labelling of TRKA; assay type: binding; conditions: intact protein MS, 2 h incubation, 25 °C, compound/protein 10:1
[5] = target: T1, TRKA (440-796) (Homo sapiens, UniProt P04629); test: Site mapping using LC-MS/MS, TRKA+7; assay type: binding
[6] = target: T1, TRKA (440-796); test: Time-dependent intact protein mass; assay type: binding
[7] = system: p-TRKA and p-AKT in KM12-Luc cells; test: Western blot of TRKA activation and downstream signalling in KM12-Luc cells; assay type: cell-based; conditions: 6 h
[8] = system: GAC (73-598); test: Intact protein mass spectrometry, covalent modification of GAC; assay type: binding
[9] = system: A549 cells; test: Anti-proliferative assay, A549 cells; assay type: cell-based; conditions: 72 h
[10] = target: T2, GAC (Macaca mulatta, UniProt F7AIH5); test: Recombinant GAC enzymatic assay; assay type: biochemical
T2 sequence (F7AIH5 73-598): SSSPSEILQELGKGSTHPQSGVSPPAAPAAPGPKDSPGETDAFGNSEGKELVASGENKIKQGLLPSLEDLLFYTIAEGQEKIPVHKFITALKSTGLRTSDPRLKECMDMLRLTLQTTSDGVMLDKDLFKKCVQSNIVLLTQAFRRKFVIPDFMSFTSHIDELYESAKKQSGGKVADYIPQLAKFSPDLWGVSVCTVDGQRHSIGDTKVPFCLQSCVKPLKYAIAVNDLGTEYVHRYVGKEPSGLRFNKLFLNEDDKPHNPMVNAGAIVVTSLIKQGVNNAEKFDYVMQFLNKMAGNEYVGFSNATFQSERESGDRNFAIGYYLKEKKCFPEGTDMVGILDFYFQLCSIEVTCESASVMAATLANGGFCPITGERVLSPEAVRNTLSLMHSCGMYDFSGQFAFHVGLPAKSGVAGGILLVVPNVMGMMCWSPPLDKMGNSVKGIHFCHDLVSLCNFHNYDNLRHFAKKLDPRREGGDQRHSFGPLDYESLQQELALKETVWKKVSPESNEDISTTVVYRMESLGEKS

[11] = system: A549 cells; test: Determination of reactive oxygen species; assay type: cell-based; conditions: 16 h, flow cytometry
[12] = system: A549 cells; test: Determination of intracellular glutamate and glutamine levels; assay type: cell-based; conditions: 16 h treatment
[13] = system: GAC^WT and GAC^K320A; test: Western blot of acetylation of GAC WT and GAC K320A; assay type: biochemical; conditions: 45 min
[14] = time-dependent intact protein MS, TRKA

T1 sequence (P04629 440-796): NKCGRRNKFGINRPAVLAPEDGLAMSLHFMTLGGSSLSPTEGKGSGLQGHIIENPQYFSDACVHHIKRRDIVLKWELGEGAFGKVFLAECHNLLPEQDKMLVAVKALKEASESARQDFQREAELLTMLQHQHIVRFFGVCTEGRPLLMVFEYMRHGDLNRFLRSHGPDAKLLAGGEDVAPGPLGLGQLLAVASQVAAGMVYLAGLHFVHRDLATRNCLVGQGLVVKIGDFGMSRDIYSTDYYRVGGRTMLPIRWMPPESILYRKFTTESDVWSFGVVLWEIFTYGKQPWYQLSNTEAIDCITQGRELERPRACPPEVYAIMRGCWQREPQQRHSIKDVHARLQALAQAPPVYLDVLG
TRKB, sequence (Q16620 32-822): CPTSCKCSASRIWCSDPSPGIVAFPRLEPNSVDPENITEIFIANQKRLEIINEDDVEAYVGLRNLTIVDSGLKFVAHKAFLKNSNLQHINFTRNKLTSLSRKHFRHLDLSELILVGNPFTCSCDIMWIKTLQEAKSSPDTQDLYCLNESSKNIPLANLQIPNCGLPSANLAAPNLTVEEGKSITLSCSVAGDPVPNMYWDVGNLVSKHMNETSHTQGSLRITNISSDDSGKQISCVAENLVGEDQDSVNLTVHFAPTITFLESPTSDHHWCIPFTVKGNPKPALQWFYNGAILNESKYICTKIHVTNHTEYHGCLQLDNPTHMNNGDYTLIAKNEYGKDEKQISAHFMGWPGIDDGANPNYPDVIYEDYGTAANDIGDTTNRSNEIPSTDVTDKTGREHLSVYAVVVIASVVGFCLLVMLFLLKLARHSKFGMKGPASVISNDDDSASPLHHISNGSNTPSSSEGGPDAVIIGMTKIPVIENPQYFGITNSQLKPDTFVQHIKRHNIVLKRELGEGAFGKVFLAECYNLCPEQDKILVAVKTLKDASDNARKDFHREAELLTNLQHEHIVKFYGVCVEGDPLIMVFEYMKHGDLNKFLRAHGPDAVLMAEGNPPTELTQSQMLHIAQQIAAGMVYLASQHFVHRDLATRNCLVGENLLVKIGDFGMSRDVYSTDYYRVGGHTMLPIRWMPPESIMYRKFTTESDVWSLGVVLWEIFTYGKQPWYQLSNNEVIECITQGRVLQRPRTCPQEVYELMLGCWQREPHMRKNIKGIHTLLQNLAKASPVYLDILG
TRKC, sequence (Q16288 32-839): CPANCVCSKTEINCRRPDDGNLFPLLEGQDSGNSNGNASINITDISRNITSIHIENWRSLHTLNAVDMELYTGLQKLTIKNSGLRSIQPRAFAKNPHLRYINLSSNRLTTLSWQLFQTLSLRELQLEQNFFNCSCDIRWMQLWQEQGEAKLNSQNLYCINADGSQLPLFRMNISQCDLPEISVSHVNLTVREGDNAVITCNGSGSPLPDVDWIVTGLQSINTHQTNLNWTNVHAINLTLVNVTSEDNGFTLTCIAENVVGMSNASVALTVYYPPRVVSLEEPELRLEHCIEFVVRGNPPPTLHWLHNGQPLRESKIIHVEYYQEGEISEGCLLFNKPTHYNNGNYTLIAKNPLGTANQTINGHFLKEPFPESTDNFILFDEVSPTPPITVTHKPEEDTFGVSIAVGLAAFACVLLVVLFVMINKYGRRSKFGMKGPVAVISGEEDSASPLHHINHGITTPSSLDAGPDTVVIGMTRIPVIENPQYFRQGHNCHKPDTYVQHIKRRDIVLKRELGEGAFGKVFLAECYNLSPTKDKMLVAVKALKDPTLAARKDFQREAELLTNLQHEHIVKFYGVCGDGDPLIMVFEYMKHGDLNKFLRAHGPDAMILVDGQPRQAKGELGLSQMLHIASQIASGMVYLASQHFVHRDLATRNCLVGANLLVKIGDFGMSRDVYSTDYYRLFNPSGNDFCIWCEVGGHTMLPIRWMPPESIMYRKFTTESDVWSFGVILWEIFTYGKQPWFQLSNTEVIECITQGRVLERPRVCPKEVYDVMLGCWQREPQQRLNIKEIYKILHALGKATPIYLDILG
TRKA, sequence (P04629 33-796): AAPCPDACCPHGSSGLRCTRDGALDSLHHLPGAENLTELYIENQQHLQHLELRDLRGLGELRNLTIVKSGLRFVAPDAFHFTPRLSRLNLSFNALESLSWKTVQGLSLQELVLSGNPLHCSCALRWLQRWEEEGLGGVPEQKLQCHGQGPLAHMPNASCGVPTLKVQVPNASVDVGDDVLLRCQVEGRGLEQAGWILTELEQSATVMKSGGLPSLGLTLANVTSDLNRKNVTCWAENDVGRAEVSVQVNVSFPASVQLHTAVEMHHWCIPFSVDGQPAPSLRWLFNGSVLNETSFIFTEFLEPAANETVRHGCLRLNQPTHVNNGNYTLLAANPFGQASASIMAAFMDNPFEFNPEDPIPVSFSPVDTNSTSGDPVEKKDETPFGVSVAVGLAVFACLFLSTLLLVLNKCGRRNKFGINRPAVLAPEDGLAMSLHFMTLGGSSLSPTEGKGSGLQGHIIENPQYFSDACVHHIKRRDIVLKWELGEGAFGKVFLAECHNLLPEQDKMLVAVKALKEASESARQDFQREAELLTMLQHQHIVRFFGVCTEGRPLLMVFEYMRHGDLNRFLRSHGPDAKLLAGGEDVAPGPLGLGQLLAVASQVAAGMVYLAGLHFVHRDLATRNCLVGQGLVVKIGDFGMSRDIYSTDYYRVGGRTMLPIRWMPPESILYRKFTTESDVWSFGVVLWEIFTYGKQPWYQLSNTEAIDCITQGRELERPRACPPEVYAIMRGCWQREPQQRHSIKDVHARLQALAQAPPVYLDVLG
TRKA kinase domain (440-796), sequence (P04629 440-796): as the sequence (P04629 440-796) above

Compound C#Cc1cc(-c2cc(Nc3nc(N[C@@H](C)c4ccc(F)cn4)ncc3Cl)n[nH]2)ccc1C=O [Compound 7] has an IC50 [1] of 11.5 nM, an IC50 [2] of 1.04 nM and an IC50 [3] of 1.9 nM. For the same compound, the “Total binding rate of TRKA modified by compound” value [4] was 99.2%, the “Covalent binding site identified in TRKA” value [5] was “Lys544” and the “Modification rate of Lys544” value ([5]; TRKA + compound, 25 °C, 2 h) was 95%. For the same compound, the Ki [6] was 800 nM, the “k inact (inactivation rate)” value [6, 14] was 0.0578 min^–1 and the “k inact/K I” value [6, 14] was 1.20 × 10^3 M^–1·s^–1. For the same compound, the “Phosphorylation of TRKA and downstream AKT” value [7] was “efficiently suppress the phosphorylation of TRKA as well as its downstream AKT”.

In the case of C#Cc1c(C=O)cccc1CC(=O)Nc1nnc(N[C@@H]2CCN(c3cccnn3)C2)s1 [Compound 14], the “Covalent modification of GAC by intact protein MS” value ([8]; 8 h, 25 °C) is reported as “confirmed covalent modification of GAC”, the “Labeling efficiency of GAC” value ([8]; intact protein MS, 8 h, 25 °C, theoretical maximum 50%) is reported as roughly 45% and the “Cellular activity (A549 antiproliferative)” value (from here on “Cellular activity”) [9] is reported as “limited efficacy”.

For C#Cc1cc(CC(=O)Nc2nnc(N[C@@H]3CCN(c4cccnn4)C3)s2)ccc1C=O [Compound 15], the “GAC enzymatic inhibition compared to the reversible inhibitor 13” value [10] was “significantly enhanced GAC enzymatic inhibition”, the “Covalent modification of GAC by intact protein MS” value ([8]; 8 h, 25 °C) was “confirmed covalent modification of GAC” and the “Cellular activity” value [9] was “limited efficacy”.

For CC(=O)Oc1ccc(CC(=O)Nc2nnc(N[C@@H]3CCN(c4cccnn4)C3)s2)cc1C#N [Compound 16], the “Total protein products displaying acetylation” value ([8]; MS of GAC-16 after 8 h incubation at 25 °C) was 71.05%, the “Cellular activity” value [9] was “enhanced antiproliferative activities” and the “Intracellular reactive oxygen species (ROS) level” value [11] was “significantly increased”. For the same compound, the “Glutamine-to-glutamate conversion (intracellular GLU/GLN ratio)” value [12] was “marked reduction”, the “Acetylation of wild-type vs Lys320 mutant GAC at low concentrations” value ([13]; ≤2 μM) was “selectively acetylated wild-type GAC, with no detectable modification of the Lys320 mutant” and the “Acetylation of wild-type vs Lys320 mutant GAC at higher concentrations” value ([13]; ≥10 μM) was “emerging acetylation signals in the Lys320 mutant”.
